Experimental findings from ChEMBL document CHEMBL3792313, “Rational design, synthesis and 2D-QSAR study of novel vasorelaxant active benzofuran-pyridine hybrids” (Bioorg Med Chem Lett, 2016) are described below.

pIC50: −log10 of the molar value. Counter-ions that a name gives are not always drawn.

This assay has as its system Thoracic aorta. As to the kind of experiment: Vasodilative activity in isolated Wistar rat thoracic aorta assessed as inhibition of norepinephrine hydrochloride-induced contraction. The assay is classed as functional, tissue-based.
Turning to `CCn1cc(-c2cc(-c3cc4ccccc4o3)nc(OC)c2C#N)c2ccccc21`, the pIC50 is 3.52. Under `COc1nc(-c2cc3ccccc3o2)cc(-c2cccc3ccccc23)c1C#N` stands 3.44. Under `CCOc1nc(-c2cc3ccccc3o2)cc(-c2cc(OC)ccc2OC)c1C#N` stands 3.49; under `CCOc1nc(-c2cc3ccccc3o2)cc(-c2ccc(C)o2)c1C#N`, 3.38. For `CCOc1nc(-c2cc3ccccc3o2)cc(-c2ccc(C)cc2)c1C#N` the value was 3.54; for `CCOc1nc(-c2cc3ccccc3o2)cc(-c2ccc(OC)cc2)c1C#N`, 3.69; for `COc1nc(-c2cc3ccccc3o2)cc(-c2ccc3ccccc3c2)c1C#N`, 3.49. Turning to `CCOc1nc(-c2cc3ccccc3o2)cc(-c2ccc(Br)cc2)c1C#N`, the negative logarithm of the IC50 (pIC50) was 3.64.

Consider `COc1ccc(-c2cc(-c3cc4ccccc4o3)nc(OC)c2C#N)c(OC)c1`, for which the pIC50 was 3.37. Under `COc1nc(-c2cc3ccccc3o2)cc(-c2cn(C)c3ccccc23)c1C#N` stands 3.58. Under `COc1nc(-c2cc3ccccc3o2)cc(-c2ccc(C)o2)c1C#N` stands 3.55. For `COc1nc(-c2cc3ccccc3o2)cc(-c2ccc(Cl)cc2)c1C#N` the value was 3.54. Consider `COc1nc(-c2cc3ccccc3o2)cc(-c2cccs2)c1C#N`, for which the pIC50 is 3.79. Under `CCOc1nc(-c2cc3ccccc3o2)cc(-c2cccs2)c1C#N` stands 3.51. For `CCOc1nc(-c2cc3ccccc3o2)cc(-c2ccccc2)c1C#N` the value was 3.51; for `CCOc1nc(-c2cc3ccccc3o2)cc(-c2ccc(N(C)C)cc2)c1C#N`, 3.47. Under `COc1ccc(-c2cc(-c3cc4ccccc4o3)nc(OC)c2C#N)cc1` stands 3.58; under `COc1nc(-c2cc3ccccc3o2)cc(-c2ccc(F)cc2)c1C#N`, 3.49. Regarding `CCOc1nc(-c2cc3ccccc3o2)cc(-c2cc(OC)c(OC)c(OC)c2)c1C#N`, the pIC50 is 3.44. On to `CCOc1nc(-c2cc3ccccc3o2)cc(-c2ccc(Cl)cc2)c1C#N`, for which the pIC50 is 3.66. Under `COc1nc(-c2cc3ccccc3o2)cc(-c2ccc(C)cc2)c1C#N` stands 3.58. Under `COc1ccc(OC)c(-c2cc(-c3cc4ccccc4o3)nc(OC)c2C#N)c1` stands 3.61; under `COc1nc(-c2cc3ccccc3o2)cc(-c2ccc(N(C)C)cc2)c1C#N`, 3.56; under `COc1nc(-c2cc3ccccc3o2)cc(-c2ccc(Cl)cc2Cl)c1C#N`, 3.49. Under `CCOc1nc(-c2cc3ccccc3o2)cc(-c2cccc3ccccc23)c1C#N` stands 3.46; under `COc1cc(-c2cc(-c3cc4ccccc4o3)nc(OC)c2C#N)cc(OC)c1OC`, 3.51. For the compound `COc1nc(-c2cc3ccccc3o2)cc(-c2ccc(Br)cc2)c1C#N`, the negative-log IC50 (pIC50) was 3.53. For `CCOc1nc(-c2cc3ccccc3o2)cc(-c2cn(C)c3ccccc23)c1C#N` the value was 3.49; for `CCOc1nc(-c2cc3ccccc3o2)cc(-c2cn(CC)c3ccccc23)c1C#N`, 3.45; for `COc1nc(-c2cc3ccccc3o2)cc(-c2ccccc2)c1C#N`, 3.63. For the compound `CCOc1nc(-c2cc3ccccc3o2)cc(-c2ccc(Cl)cc2Cl)c1C#N`, the negative-log IC50 (pIC50) was 3.35.

As to `CCOc1nc(-c2cc3ccccc3o2)cc(-c2ccc(OC)cc2OC)c1C#N`, the pIC50 is 3.31. As for `CCOc1nc(-c2cc3ccccc3o2)cc(-c2ccc3ccccc3c2)c1C#N`, the pIC50 was 3.37. For `CCOc1nc(-c2cc3ccccc3o2)cc(-c2ccc(F)cc2)c1C#N` the value was 3.40; for `CCCCc1oc2ccccc2c1C(=O)c1cc(I)c(OCCN(CC)CC)c(I)c1` [AMIODARONE HYDROCHLORIDE], 3.51.
